Target: T1, α-TTP (tocopherol transfer protein) (Homo sapiens, UniProt P49638)
T1 sequence (P49638 1-278): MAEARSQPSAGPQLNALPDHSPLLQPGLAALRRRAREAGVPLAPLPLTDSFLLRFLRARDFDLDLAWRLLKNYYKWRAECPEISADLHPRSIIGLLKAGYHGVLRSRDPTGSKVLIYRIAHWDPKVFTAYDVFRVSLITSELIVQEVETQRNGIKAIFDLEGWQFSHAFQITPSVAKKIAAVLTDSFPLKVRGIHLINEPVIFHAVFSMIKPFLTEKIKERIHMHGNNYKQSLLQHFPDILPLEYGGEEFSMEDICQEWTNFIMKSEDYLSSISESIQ
Experiment: fluorescence titration of purified α-TTP, one-site binding fit

Kd: 232 ± 10 nM
SMILES: CC1=CC(C)=[N+]2C1=Cc1ccc(CCCCCC[C@]3(C)CCc4c(C)c(O)c(C)c(C)c4O3)n1[B-]2(F)F [10a, (R)-5,5-difluoro-7-(6-(6-hydroxy-2,5,7,8-tetramethylchroman-2-yl)hexyl)-1,3-dimethyl-5H-dipyrrolo[1,2-c:1′,2′-f][1,3,2]diazaborinin-4-ium-5-uide]

Source: article PMC2891523 (The Journal of organic chemistry, 2010)
